Measurements taken from paper PMC6246607, “Novel AR-12 derivatives, P12-23 and P12-34, inhibit flavivirus replication by blocking host de novo pyrimidine biosynthesis” (Emerging Microbes & Infections, 2018).
Values joined by “and” are separate entries in the source; they are usually repeats but may differ in a detail not shown here. Identical values can stand only once.

Assays:
[1] = tested on: ZIKV; assay: High-content image analysis of ZIKV infection (NS3) in A549 cells; format: cell-based, Zika virus; conditions: ZIKV
Method: (§1) Approximately 50% of confluent cells seeded in 96-well plates were infected with viruses in the presence of drugs or DMSO as a solvent control. At 24 h post-infection (hpi), cells were fixed with 4% paraformaldehyde at room temperature (RT) for 20 min, permeated with a 0.5% Triton X-100 buffer for 2 min, and blocked with 3% BSA for 30 min. Nuclei were stained with DAPI (Sigma) at RT for 20 min. Viral NS3 was stained with a mouse anti-NS3 monoclonal antibody (mAb)[47] followed by staining with an Alexa Fluor 488-conjugated goat anti-mouse IgG antibody (ThermoFisher) at RT for 1 h. Nine images from different fields per well were acquired and analyzed using an ImageXpress Micro XLS Widefield High-Content Analysis System (Molecular Devices, Sunnyvale, USA). To quantify viral infection, the fluorescence intensities of viral NS3 or eGFP from the reporter virus were measured using MetaXpress® (Molecular Devices, Sunnyvale, USA) and were calculated with a mock control (infection as 0%) and a DMSO solvent control (infection as 100%).

[2] = tested on: A549 cells; assay: LDH release cytotoxicity assay; format: cell-based, human; conditions: 24 h
Method: (§2) Cells were treated with compounds at the indicated concentrations for 24 h. The release of lactate dehydrogenase (LDH) was measured using a Cytotoxicity Detection Kit (Roche, Basel, Switzerland) after removing cell debris. Cells treated with 1% Triton X-100 were used to determine the maximal LDH release.

[3] = LDH release cytotoxicity assay; format: cell-based, human; conditions: human, A549 cells
Method: as §2

[4] = tested on: DENV-2-eGFP; assay: microbe, parasite or virus in culture; format: cell-based, dengue virus
Method: as §1

[5] = tested on: JEV-eGFP; assay: microbe, parasite or virus in culture; format: cell-based, Japanese encephalitis virus
Method: as §1

SMILES | SI (CC50/IC50) ([1]; A549 cells) | IC50 ([1]; Zika virus, MOI 0.5, A549 cells, 24 h) | CC50 ([2]; A549 cells) | noncytotoxic concentrations ([2]; human A549 cells) | CC50 at 24 h [3] | SI (CC50/IC50) ([4]; DENV-2-eGFP, A549 cells) | IC50 ([4]; Dengue virus, DENV2, A549, 24 h) | anti-DENV activity with uridine supplement ([4]; uridine 50 µg/ml, P12-23 1 µM, P12-34 1 µM, AR-12 5 µM, A549 cells) | SI (CC50/IC50) ([5]; JEV-eGFP, A549 cells) | IC50 ([5]; Japanese encephalitis virus, A549, 24 h) | effect on DENV replication ([4]; A549 cells, DENV-2-eGFP MOI 5, reversed by exogenous uridine 50 µg/ml)
NCC(=O)Nc1ccc(-n2nc(C(F)(F)F)cc2-c2ccc3c(ccc4ccccc43)c2)cc1 [AR-12] | 15.8 ± 2 | 1370 ± 177 nM | 21400 ± 200 nM | ≤ 12.5 µM | ~20000 nM | 33 and 33.2 ± 5.9 | 660 ± 130 nM | abolished | 42.3 ± 4.1 | 510 ± 52.4 nM | –
O=C(N[C@@H]1CCCc2c1[nH]c1ccc(Cl)cc21)c1ccccn1 [GSK983, reference compound] | – | – | – | – | – | – | – | – | – | – | reduced DENV replication in a dose-dependent manner
